Source: patent US6087391A, “Method of rendering organic compounds soluble in fatty systems, novel chemical complexes of such compounds and various applications of the complexes” (priority 1994, dated 2000)

Test: Simulation of bioavailability: availability of test compound in standardised enteric juice
Conditions: enteric juice pH 8.3, 37 degrees Celsius; mean over the entire experiment (60-240 minutes); mean of two experiments
Experimental: 5 g of test compound either pure or in ethanolic solution was mixed with 5-20 g of the below mentioned carrier. After vigorously mixing ethanol was removed by evaporation.
The following carrier was used: diacetylated monoglyceride with the following fatty acid composition based on the monoglyceride: about 50% lauric acid (12:0), 20% myristic acid (14:0), 15% caprylic/capric acid (8:0 and 10:0) and 10% palmitic acid (16:0).
The pH was adjusted to 8.3.
0.500 g complex and 50 ml of standardised enteric juice was mixed in a 100 ml vessel and placed on a shaking water bath at 37 degrees Celsius under moderate agitation. As controls pure test compound corresponding to 0.500 g complex was used instead of 0.500 g complex.
Samples of 1.000 ml were collected after 60, 120, 180 and 240 minutes. The samples were extracted with 1.5 ml of 1-butanol. The concentration of test compound in the enteric juice was determined by an appropriate method (spectrophotometrically or by HPLC).

COC1=C(OC)C(=O)C(C/C=C(\C)CC/C=C(\C)CC/C=C(\C)CC/C=C(\C)CC/C=C(\C)CC/C=C(\C)CC/C=C(\C)CC/C=C(\C)CC/C=C(\C)CCC=C(C)C)=C(C)C1=O [Q10, coenzyme Q10]
availability in the complex form compared to pure test compound: 2,2 times
